In patent US8420696B2, “Use of low-dose ladostigil for neuroprotection” (priority 2005, dated 2013):

Key:
[1] = tested on: aged rats (spatial learning); experiment: Example 3: spatial learning of aged rats in Morris water maze; format: in vivo, Wistar rats; conditions: 1 mg/kg/day in drinking fluid for four months from age 16 months
Experimental: Experiments were performed in 30 male rats of the Wistar strain. […] The rats were housed in pairs at an ambient temperature of 21° C. They were weighed once weekly and their fluid intake measured daily for two weeks and then twice weekly for the remaining 4 months. Ten of the rats were started on ladostigil 1 mg/kg/day in the drinking fluid when aged 16 months and given the drug for four months. The remaining 10 rats of the same age were given regular drinking water. At the end of the four months spatial memory of these 20 rats and of another 10 aged 3 months was tested in the Morris water maze as previously described (Shoham et al, 2006).

cultured microglia = experiment: Release of NO from cultured microglia induced by LPS; format: cell-based; conditions: concentrations of 0.1-10 μM; preliminary data
Experimental: It is therefore likely that the neuroprotective effect of ladostigil resulted from other actions of the drug. These could include a direct effect on microglia as shown in preliminary data from experiments in our laboratory in which concentrations of 0.1-10 μM reduced by 20-40% the release of NO from cultured microglia induced by LPS. These concentrations are too low to inhibit ChE in microglia.

[2] = tested on: rats injected icv with STZ (spatial memory); experiment: Place recognition test after icv STZ; format: in vivo, Sprague-Dawley rats
Experimental: Male Sprague-Dawley rats (63) weighing 320-340 g, aged 4 months, were anesthetized by an intraperitoneal injection of Equithesin 0.3 ml/kg. STZ (0.5 mg) dissolved in 2 μl artificial cerebrospinal fluid (CSF) was injected into each lateral ventricle of 45 rats. The stereotaxic co-ordinates for icv injection were: 0.9 mm posterior, 1.8 mm lateral and 3.8 mm ventral from the bregma level. Control rats (18) received a bilateral injection of 2 μl artificial CSF. STZ-injected rats (25) were given ladostigil (1 mg/kg of the hemitartrate salt/day) orally in a volume of (1 ml/kg) from one week before, until 1 or 8 weeks after icv STZ. The remaining 20 rats received 1 ml/kg water. The rats were housed two per cage with free access to food and water until the behavioral, enzymatic and cytochemical measurements were completed.
Episodic memory in the object recognition test was still intact 2 but not 4 weeks after a single icv STZ injection (Table 3). […] The object recognition test measured non-spatial working memory with characteristics of episodic memory that is primarily affected in senile dementia (Bartolini et al., Aniracetam restores object recognition impaired by age, scopolamine, and nucleus basalis lesions, Pharmacol. Biochem. Behav. (1996) 53:277-83). […] Two identical objects were placed in the arena and the time taken by the rats to explore each object during a period of 3 min was recorded. […]

[3] = biological target: T1, butyrylcholinesterase (BuChE) (Rattus norvegicus, UniProt Q9JKC1); experiment: Example 2: BuChE activity in cortex and hippocampus after ladostigil treatment; format: in vivo, rats; conditions: chronic 1 mg/kg
T1 construct: from tissue; host or cells: cortex and hippocampus homogenates of dosed Sprague-Dawley rats
T1 sequence (Q9JKC1 24-597): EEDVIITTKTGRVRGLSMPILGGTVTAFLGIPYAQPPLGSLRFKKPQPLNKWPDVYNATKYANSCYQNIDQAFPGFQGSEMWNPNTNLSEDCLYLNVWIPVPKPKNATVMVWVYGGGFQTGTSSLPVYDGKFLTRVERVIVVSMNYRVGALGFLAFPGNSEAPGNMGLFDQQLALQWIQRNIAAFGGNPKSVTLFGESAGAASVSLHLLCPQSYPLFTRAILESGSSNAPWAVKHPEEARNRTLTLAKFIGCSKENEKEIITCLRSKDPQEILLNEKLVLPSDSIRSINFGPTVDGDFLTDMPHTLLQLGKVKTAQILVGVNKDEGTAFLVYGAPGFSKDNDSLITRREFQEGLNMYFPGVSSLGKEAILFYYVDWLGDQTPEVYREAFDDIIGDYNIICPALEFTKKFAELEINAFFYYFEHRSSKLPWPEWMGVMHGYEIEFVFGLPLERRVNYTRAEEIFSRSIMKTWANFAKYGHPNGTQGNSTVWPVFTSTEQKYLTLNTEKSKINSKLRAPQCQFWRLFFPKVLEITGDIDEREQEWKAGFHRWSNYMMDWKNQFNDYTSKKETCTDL
Experimental: The effect of chronic ladostigil treatment on ChE activity in the cortex and hippocampus of rats was determined one week after icv STZ in 12 rats (3 treated with water and 9 with ladostigil). The effect of acute treatment with ladostigil 1 or 17 mg/kg was determined 2 hrs after drug administration. […] The brain was rapidly removed, washed with saline on ice and the cortex, hippocampus and striatum dissected out, quickly weighed and stored at −70° C. until assay. Total ChE activity in the cortex and hippocampus was measured as described in Wang et al., Gender differences in the effect of rivastigmine on brain cholinesterase activity and cognitive function in rats, Neuropharmacology (2000) 39:497-506, using the spectrophotometric method of Ellman et al., A new and rapid colorimetric determination of acetylcholinesterase activity, Biochem. Pharmacol. (1961) 7:88-95 with acetylthiocholine (Sigma Ltd) as a substrate using homogenate of 100 mg tissue in 1 ml phosphate buffer. To determine only butyrylcholinesterase (BuChE) activity the amounts of tissue/ml of buffer were increased 3-fold and butyrylthiocholine (Sigma Ltd) was used as a substrate. MAO A and B activity was measured in homogenates of striatum as described in Weinstock et al., Limited potentiation of blood pressure response to oral tyramine by brain-selective monoamine oxidase A-B inhibitor, TV-3326 in conscious rabbits, Neuropharmacology (2002) 43:999-1005.

## C#CCN[C@@H]1CCc2ccc(OC(=O)N(C)CC)cc21 [ladostigil, R(+)-6-(N-methyl,N-ethyl-carbamoyloxy)-N′-propargyl-1-aminoindan]
[1]
  Difference in spatial learning between young and old rats (Morris water maze): substantially abolished
Cultured microglia
  Reduction of the release of NO from cultured microglia induced by LPS: 20-40%
[2]; STZ (4 weeks) + ladostigil 1 mg/kg chronic, mean ± s.e.m.
  Discrimination index, Place: 0.211 ± 0.07
[2]; icv STZ with chronic ladostigil, significantly >0, P<0.05
  Discrimination in place recognition test: significant discrimination index
[3]; Cortex, 60 min
  BuChE (%) inhibition: 16.2 ± 2.5 %
[3]; Cortex, 120 min
  BuChE (%) inhibition: 15.7 ± 3.2 %
[3]; Hippocampus, 60 min
  BuChE (%) inhibition: 7.3 ± 2.5%
[3]; Hippocampus, 120 min
  BuChE (%) inhibition: 5.4 ± 2.8%
[3]
  Inhibition of BuChE in the hippocampus: no significant inhibition
[3]; seven days after icv STZ, 1 or 2 hrs after the last dose
  Inhibition of BuChE in the cortex: 16%
